These results are taken from US7608750B2, “Nonhuman model animal unresponsive to immunopotentiating synthetic compound” (Japan Science and Technology Agency, priority 2001, dated 2009).

The subject of assay [1] is macrophages derived from wild-type mice. Put plainly: Intracellular signalling (NF-κB EMSA, JNK and IRAK in vitro kinase assay) in macrophages, wild-type. It is filed as cell-based, mouse. The note with it: 100 nM R-848 or 1.0 μM CpGDNA 1668. As to the method:
Next, the activation of intracellular signaling cascade to an antiviral immune-modulator was examined. Peritoneal macrophages (2×10^6 cells) from TLR7 knockout mice (TLR7KO) and wild-type mice respectively stimulated with thioglycollic acid, were stimulated with 100 nM of R-848 or 1.0 μM of CpGDNA 1668 (CpG) for a certain period of time, nucleoprotein was extracted, the extract obtained with the specific probe including NF-κB associated-site was incubated, electrophoresed, visualized by autoradiography, and NF-κB activation was examined as DNA-associated protein by electrophoretic mobility shift assay (EMSA). In FIG. 12, an arrow indicates induced NF-κB complexes, and an arrow head indicates a free probe.
(§1) The functional role of TLR7 in transactivation of NF-κB reporter gene induced by R-848 was examined. HEK293 cells were transiently cotransfected with TLR7 expression plasmids derived from human, and luciferase activity was measured before and after R-848 stimulation. The peritoneal macrophages derived from TLR7 knockout mice (TLR7KO) and wild-type mice stimulated with thioglycollic acid were stimulated with 100 nm of R-848 or 1.0 μM of phosphothioate modified CpGDNA 1668 (CpG), all cell lysate were prepared, immunoprecipated with anti-JNK antibody, and JNK activity was examined by In Vitro Kinase Assay using GST-c-Jun fusion protein as a substrate. The same lysate was blotted with anti-JNK antibody. Moreover, the lysate was immunoprecipated with anti-IRAK, and kinase activity of IRAK was examined by In Vitro Kinase Assay. The same lysate was blotted with anti-IRAK antibody. […] It is important to activate TLR7-MyD88-dependent signal pathway for the effect of imidazoquinoline in vivo.

In assay [2] the target is T1, TLR7 (Homo sapiens, UniProt Q9NYK1).
T1 construct: expressed in transfected cells; host or cells: HEK293
T1 sequence (Q9NYK1 27-1049): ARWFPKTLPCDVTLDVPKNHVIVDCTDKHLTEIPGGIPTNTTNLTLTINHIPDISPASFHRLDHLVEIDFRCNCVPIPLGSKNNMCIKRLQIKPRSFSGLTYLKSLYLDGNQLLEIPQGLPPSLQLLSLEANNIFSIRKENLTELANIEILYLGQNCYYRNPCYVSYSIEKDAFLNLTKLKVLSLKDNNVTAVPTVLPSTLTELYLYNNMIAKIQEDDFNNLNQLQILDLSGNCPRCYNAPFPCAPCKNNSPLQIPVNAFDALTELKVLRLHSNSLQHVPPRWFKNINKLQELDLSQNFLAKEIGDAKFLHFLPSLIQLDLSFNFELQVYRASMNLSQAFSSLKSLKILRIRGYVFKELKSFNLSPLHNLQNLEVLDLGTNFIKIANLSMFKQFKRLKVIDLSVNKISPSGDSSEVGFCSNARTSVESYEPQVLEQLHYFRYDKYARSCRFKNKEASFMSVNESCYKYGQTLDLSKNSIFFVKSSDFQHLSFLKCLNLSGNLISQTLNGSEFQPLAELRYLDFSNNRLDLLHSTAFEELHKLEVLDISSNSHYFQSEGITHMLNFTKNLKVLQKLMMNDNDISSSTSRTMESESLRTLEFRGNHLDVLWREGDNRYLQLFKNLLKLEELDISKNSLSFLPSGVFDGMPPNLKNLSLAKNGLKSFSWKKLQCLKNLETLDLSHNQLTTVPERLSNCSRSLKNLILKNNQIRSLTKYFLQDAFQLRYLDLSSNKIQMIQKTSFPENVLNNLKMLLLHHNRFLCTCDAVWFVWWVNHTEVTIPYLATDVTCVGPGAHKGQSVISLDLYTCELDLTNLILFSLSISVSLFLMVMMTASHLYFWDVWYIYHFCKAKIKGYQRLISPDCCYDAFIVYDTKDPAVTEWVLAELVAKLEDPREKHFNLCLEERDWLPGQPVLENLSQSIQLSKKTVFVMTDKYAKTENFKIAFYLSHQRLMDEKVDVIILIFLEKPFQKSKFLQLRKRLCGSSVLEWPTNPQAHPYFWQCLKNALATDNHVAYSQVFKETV
Put plainly: NF-κB reporter gene (luciferase) in HEK293 cells transfected with TLR7 expression plasmids. It is filed as cell-based. Particulars: HEK293 cells transiently cotransfected with human TLR7 expression plasmids, before and after R-848 stimulation. As to the method: as §1
(A reporter such as luciferase makes a cellular process visible.)

The test system of assay [3] is BALB/c mice (wild-type). As to the kind of experiment: Serum cytokines after oral administration of imidazoquinolines. It is filed as in vivo, mouse. Particulars: after two hours, N=3. The method, then: Before examining the reactivity of TLR7 knockout mice to imiquimod and R-848 which are imidazoquinoline group compound, firstly imiquimod or R-848 were administered to BALB/c mice (wild-type) orally at the predetermined concentration, respectively, the concentration of IFN-α, TNF-α and IL-12 in serum were measured after two hours. […] The data is shown as a mean value+/−S.D. (N=3). Similarly, the ability of these compounds to activate immune cells via TLR was examined using imiquimod or R-848 respectively. The peritoneal macrophages (5×10^4 cells) from wild-type mice and MyD88 knockout mice prepared in example 2, were stimulated by imiquimod or R-848, in the presence or absence of 30 U/ml of IFN-γ, and the concentration of TNF-α and IL-12 produced by peritoneal macrophages were measured by ELISA. […] The data is shown as a mean value+/−S.D. (N=3).

Turning to `CCOCc1nc2c(N)nc3ccccc3c2n1CC(C)(C)O` [R-848, resiquimod], in assay [1], the “activation of c-Jun N terminal kinase (JNK)” value is “induced”, the “enhanced DNA avidity of NF-κB transcription (EMSA)” value is given as “induced” and the “phosphorylation of IRAK” value is “induced”. Besides, in assay [2], the “NF-κB-dependent promoter (luciferase activity)” value was “promoted”. Moreover, in assay [3], the “concentration of IFN-α in serum” value is given as “increased depending on applied dose”, the “concentration of IL-12 in serum” value is given as “increased depending on applied dose” and the “concentration of TNF-α in serum” value is given as “increased depending on applied dose”.
